Results taken from PubChem BioAssay (NCI).
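Step 1: Grow cells in 96-well plates. Step 2: Expose to compound for 48 hours at 5 concentrations. Step 3: Interpolate endpoints linearly; if unreached, use highest concentration. The concentration for 50% growth inhibition is given as GI50. TGI: concentration producing complete growth inhibition.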

How the values were obtained:
Assay in all cases: inhibition of tumour cell growth, NCI panel, 48 h
NCI-H460 lung = test system: NCI-H460 lung
SF-295 CNS = test system: SF-295 CNS
K-562 leukemia = test system: K-562 leukemia
BT-549 breast = test system: BT-549 breast
COLO 205 colon = test system: COLO 205 colon
LOX IMVI melanoma = test system: LOX IMVI melanoma
MCF7 breast = test system: MCF7 breast
OVCAR-5 ovarian = test system: OVCAR-5 ovarian
OVCAR-3 ovarian = test system: OVCAR-3 ovarian
SW-620 colon = test system: SW-620 colon
SN12C renal = test system: SN12C renal
SF-268 CNS = test system: SF-268 CNS
UACC-62 melanoma = test system: UACC-62 melanoma
A549 NSCLC = test system: A549 NSCLC
HL-60(TB) leukemia = test system: HL-60(TB) leukemia
HT29 colon = test system: HT29 colon
RPMI-8226 leukemia = test system: RPMI-8226 leukemia
SNB-19 CNS = test system: SNB-19 CNS
SK-OV-3 ovarian = test system: SK-OV-3 ovarian
HCC-2998 colon = test system: HCC-2998 colon
SK-MEL-2 melanoma = test system: SK-MEL-2 melanoma
HCT-15 colon = test system: HCT-15 colon
HCT-116 colon = test system: HCT-116 colon
OVCAR-8 ovarian = test system: OVCAR-8 ovarian
RXF 393 renal = test system: RXF 393 renal
NCI-H522 lung = test system: NCI-H522 lung
ACHN renal = test system: ACHN renal
PC-3 prostate = test system: PC-3 prostate
HOP-92 NSCLC = test system: HOP-92 NSCLC
SK-MEL-28 melanoma = test system: SK-MEL-28 melanoma
NCI-H23 lung = test system: NCI-H23 lung
OVCAR-4 ovarian = test system: OVCAR-4 ovarian
MOLT-4 leukemia = test system: MOLT-4 leukemia
SR leukemia = test system: SR leukemia
IGROV1 ovarian = test system: IGROV1 ovarian
CCRF-CEM leukemia = test system: CCRF-CEM leukemia
UO-31 renal = test system: UO-31 renal
SNB-75 CNS = test system: SNB-75 CNS
CAKI-1 renal = test system: CAKI-1 renal
EKVX NSCLC = test system: EKVX NSCLC
KM12 colon = test system: KM12 colon
MDA-MB-435 = test system: MDA-MB-435
SK-MEL-5 melanoma = test system: SK-MEL-5 melanoma
786-0 renal = test system: 786-0 renal
U251 CNS = test system: U251 CNS
NCI/ADR-RES ovarian = test system: NCI/ADR-RES ovarian
UACC-257 melanoma = test system: UACC-257 melanoma
TK-10 renal = test system: TK-10 renal
SF-539 CNS = test system: SF-539 CNS
MDA-MB-231 breast = test system: MDA-MB-231 breast

SMILES: COC(=O)CC[C@]1(C)O[C@H]2[C@H]([C@@H](C)CCCC(C)=O)OC(=O)[C@@H]2C[C@H]1O
- GI50 (NCI-H460 lung): > 100 µM
- TGI (NCI-H460 lung): > 100 µM
- GI50 (SF-295 CNS): > 100 µM
- TGI (SF-295 CNS): > 100 µM
- GI50 (K-562 leukemia): > 100 µM
- TGI (K-562 leukemia): > 100 µM
- GI50 (BT-549 breast): > 100 µM
- TGI (BT-549 breast): > 100 µM
- GI50 (COLO 205 colon): > 100 µM
- TGI (COLO 205 colon): > 100 µM
- GI50 (LOX IMVI melanoma): > 100 µM
- TGI (LOX IMVI melanoma): > 100 µM
- GI50 (MCF7 breast): > 100 µM
- TGI (MCF7 breast): > 100 µM
- GI50 (OVCAR-5 ovarian): > 100 µM
- TGI (OVCAR-5 ovarian): > 100 µM
- GI50 (OVCAR-3 ovarian): 31.5 µM
- TGI (OVCAR-3 ovarian): > 100 µM
- GI50 (SW-620 colon): > 100 µM
- TGI (SW-620 colon): > 100 µM
- GI50 (SN12C renal): > 100 µM
- TGI (SN12C renal): > 100 µM
- GI50 (SF-268 CNS): > 100 µM
- TGI (SF-268 CNS): > 100 µM
- GI50 (UACC-62 melanoma): > 100 µM
- TGI (UACC-62 melanoma): > 100 µM
- GI50 (A549 NSCLC): > 100 µM
- TGI (A549 NSCLC): > 100 µM
- GI50 (HL-60(TB) leukemia): > 100 µM
- TGI (HL-60(TB) leukemia): > 100 µM
- GI50 (HT29 colon): > 100 µM
- TGI (HT29 colon): > 100 µM
- GI50 (RPMI-8226 leukemia): > 100 µM
- TGI (RPMI-8226 leukemia): > 100 µM
- GI50 (SNB-19 CNS): > 100 µM
- TGI (SNB-19 CNS): > 100 µM
- GI50 (SK-OV-3 ovarian): > 100 µM
- TGI (SK-OV-3 ovarian): > 100 µM
- GI50 (HCC-2998 colon): 29.1 µM
- TGI (HCC-2998 colon): > 100 µM
- GI50 (SK-MEL-2 melanoma): > 100 µM
- TGI (SK-MEL-2 melanoma): > 100 µM
- GI50 (HCT-15 colon): > 100 µM
- TGI (HCT-15 colon): > 100 µM
- GI50 (HCT-116 colon): > 100 µM
- TGI (HCT-116 colon): > 100 µM
- GI50 (OVCAR-8 ovarian): > 100 µM
- TGI (OVCAR-8 ovarian): > 100 µM
- GI50 (RXF 393 renal): 60.1 µM
- TGI (RXF 393 renal): > 100 µM
- GI50 (NCI-H522 lung): > 100 µM
- TGI (NCI-H522 lung): > 100 µM
- GI50 (ACHN renal): > 100 µM
- TGI (ACHN renal): > 100 µM
- GI50 (PC-3 prostate): > 100 µM
- TGI (PC-3 prostate): > 100 µM
- GI50 (HOP-92 NSCLC): > 100 µM
- TGI (HOP-92 NSCLC): > 100 µM
- GI50 (SK-MEL-28 melanoma): > 100 µM
- TGI (SK-MEL-28 melanoma): > 100 µM
- GI50 (NCI-H23 lung): 67.8 µM
- TGI (NCI-H23 lung): > 100 µM
- GI50 (OVCAR-4 ovarian): > 100 µM
- TGI (OVCAR-4 ovarian): > 100 µM
- GI50 (MOLT-4 leukemia): > 100 µM
- TGI (MOLT-4 leukemia): > 100 µM
- GI50 (SR leukemia): > 100 µM
- TGI (SR leukemia): > 100 µM
- GI50 (IGROV1 ovarian): 39.4 µM
- TGI (IGROV1 ovarian): > 100 µM
- GI50 (CCRF-CEM leukemia): > 100 µM
- TGI (CCRF-CEM leukemia): > 100 µM
- GI50 (UO-31 renal): > 100 µM
- TGI (UO-31 renal): > 100 µM
- GI50 (SNB-75 CNS): > 100 µM
- TGI (SNB-75 CNS): > 100 µM
- GI50 (CAKI-1 renal): 32 µM
- TGI (CAKI-1 renal): > 100 µM
- GI50 (EKVX NSCLC): > 100 µM
- TGI (EKVX NSCLC): > 100 µM
- GI50 (KM12 colon): > 100 µM
- TGI (KM12 colon): > 100 µM
- GI50 (MDA-MB-435): 98.3 µM
- TGI (MDA-MB-435): > 100 µM
- GI50 (SK-MEL-5 melanoma): > 100 µM
- TGI (SK-MEL-5 melanoma): > 100 µM
- GI50 (786-0 renal): > 100 µM
- TGI (786-0 renal): > 100 µM
- GI50 (U251 CNS): > 100 µM
- TGI (U251 CNS): > 100 µM
- GI50 (NCI/ADR-RES ovarian): > 100 µM
- TGI (NCI/ADR-RES ovarian): > 100 µM
- GI50 (UACC-257 melanoma): 44.9 µM
- TGI (UACC-257 melanoma): > 100 µM
- GI50 (TK-10 renal): 68.7 µM
- TGI (TK-10 renal): > 100 µM
- GI50 (SF-539 CNS): 84.9 µM
- TGI (SF-539 CNS): > 100 µM
- GI50 (MDA-MB-231 breast): > 100 µM
- TGI (MDA-MB-231 breast): > 100 µM
